Laboratory results as given in PubChem BioAssay AID248 (DTP/NCI, 2004).
“And” between values parts separate entries of the source, which are not always exact repeats. Identical values can stand only once. Toxic doses and inconclusive results are not listed. Rule as the data show it: active = T/C of 150% or more; inactive = T/C below 125%.

Tested on: L1210 leukemia ip in BDF1 mice, survival T/C
Experiment: NCI In Vivo Anticancer Drug Screen. Data for tumor model L1210 Leukemia (intraperitoneal) in B6D2F1 (BDF1) mice
Conditions: endpoint: mean survival time, higher = longer survival
How it was run: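 Transplantable tumor model; survival measured in treated vs vehicle control mice. Value = treated/control.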

[1] = dose: 100.0 mg/kg/injection, schedule: Q01DX009 (ip), vehicle: saline with Tween-80
[2] = dose: 200.0 mg/kg/injection, schedule: Q01DX009 (ip), vehicle: saline with Tween-80
[3] = dose: 400.0 mg/kg/injection, schedule: Q01DX009 (ip), vehicle: saline with Tween-80
[4] = dose: 50.0 mg/kg/injection, schedule: Q01DX001 (ip), vehicle: saline
[5] = dose: 100.0 mg/kg/injection, schedule: Q01DX001 (ip), vehicle: saline
[6] = dose: 200.0 mg/kg/injection, schedule: Q01DX001 (ip), vehicle: saline
[7] = dose: 400.0 mg/kg/injection, schedule: Q01DX001 (ip), vehicle: saline
[8] = dose: 100.0 mg/kg/injection, schedule: Q04DX003 (ip), vehicle: saline
[9] = dose: 200.0 mg/kg/injection, schedule: Q04DX003 (ip), vehicle: saline
[10] = dose: 400.0 mg/kg/injection, schedule: Q04DX003 (ip), vehicle: saline
[11] = dose: 100.0 mg/kg/injection, schedule: Q01DX009 (ip), vehicle: Klucel (hydroxypropylcellulose) (HPC)
[12] = dose: 200.0 mg/kg/injection, schedule: Q01DX009 (ip), vehicle: Klucel (hydroxypropylcellulose) (HPC)
[13] = dose: 50.0 mg/kg/injection, schedule: Q01DX009 (ip), vehicle: Klucel (hydroxypropylcellulose) (HPC)
[14] = dose: 100.0 mg/kg/injection, schedule: Q04DX003 (ip), vehicle: Klucel (hydroxypropylcellulose) (HPC)
[15] = dose: 200.0 mg/kg/injection, schedule: Q04DX003 (ip), vehicle: Klucel (hydroxypropylcellulose) (HPC)
[16] = dose: 400.0 mg/kg/injection, schedule: Q04DX003 (ip), vehicle: Klucel (hydroxypropylcellulose) (HPC)

Measured: T/C

COc1ccc(C)cc1NC(=O)SCc1ccccc1
inactive: [1] 100 % of control | [2] 101 % of control | [3] 94 % of control

Nc1c(Cl)ncnc1Nc1cccc(C(=O)O)c1
inactive: [4] 98 % of control | [5] 108 % of control | [6] 102 % of control | [7] 93 % of control

O=C(CC(O)(C(F)(F)F)C(F)(F)F)c1ccccc1[N+](=O)[O-]
inactive: dose: 12.5 mg/kg/injection, schedule: Q01DX009 (ip), vehicle: DMSO 94 % of control | dose: 12.5 mg/kg/injection, schedule: Q04DX003 (ip), vehicle: DMSO 97 % of control | dose: 25.0 mg/kg/injection, schedule: Q01DX009 (ip), vehicle: DMSO 86 % of control | dose: 25.0 mg/kg/injection, schedule: Q04DX003 (ip), vehicle: DMSO 95 % of control | dose: 50.0 mg/kg/injection, schedule: Q04DX003 (ip), vehicle: DMSO 110 % of control | dose: 100.0 mg/kg/injection, schedule: Q04DX003 (ip), vehicle: DMSO 102 % of control

Cn1nnc(N)n1
inactive: [5] 98 % of control | [8] 102 % of control | [6] 100 % of control | [9] 96 % of control | [7] 100 % of control | [10] 102 % of control

CC1CCC2=CC(=O)CCC2(C)C1C (stereo not drawn)
inactive: [1] 101 % of control | [2] 96 % of control | [3] 91 % of control

O=C(Cl)Oc1cccc2ccccc12
inactive: [4] 108 % of control | [5] 113 % of control | [6] 104 % of control | [7] 98 % of control

O=S(=O)(C1=C(c2ccccc2)CCCC1)c1ccccc1
inactive: dose: 100.0 mg/kg/injection, schedule: Q01DX009 (ip), vehicle: acetone 104 % of control

Nc1nc(NCCCc2ccccc2)c(N)c(=O)[nH]1
inactive: dose: 25.0 mg/kg/injection, schedule: Q01DX009 (ip), vehicle: saline with Tween-80 94 % of control | dose: 50.0 mg/kg/injection, schedule: Q01DX009 (ip), vehicle: saline with Tween-80 92 % of control | [1] 92 % of control and 97 % of control

CN(C)c1ccc(C2OC3(CCCCC3)C[N+]23CCCC3)cc1 (stereo not drawn)
inactive: dose: 100.0 mg/kg/injection, schedule: Q04DX003 (ip), vehicle: acetone 102 % of control

C/C=C\c1ccc(OC(=O)Nc2ccc(C(=O)OCC)cc2)c(OC)c1
inactive: [11] 94 % of control | [12] 94 % of control | dose: 400.0 mg/kg/injection, schedule: Q01DX009 (ip), vehicle: Klucel (hydroxypropylcellulose) (HPC) 89 % of control

Cc1cccc(OCC(O)CN2CCN(c3ccccc3)CC2)c1 (stereo not drawn)
inactive: [13] 104 % of control | [11] 101 % of control | [12] 115 % of control

O=C(NS(=O)(=O)c1ccc(Cl)cc1)OCCCl
inactive: [14] 96 % of control | [15] 95 % of control | [16] 98 % of control

NC(=N\C1=NCCO1)/C(N)=N/C1=NCCO1
inactive: [8] 109 % of control | [9] 107 % of control | [10] 97 % of control

CC1(C)OCC(COCc2ccccc2)O1 (stereo not drawn)
inactive: dose: 100.0 mg/kg/injection, schedule: Q04DX003 (ip), vehicle: saline with Tween-80 96 % of control | dose: 200.0 mg/kg/injection, schedule: Q04DX003 (ip), vehicle: saline with Tween-80 104 % of control | dose: 400.0 mg/kg/injection, schedule: Q04DX003 (ip), vehicle: saline with Tween-80 95 % of control

O=[N+]([O-])c1cc([N+](=O)[O-])c(Nn2c3ccccc3c3ccccc32)c([N+](=O)[O-])c1
inactive: dose: 6.25 mg/kg/injection, schedule: Q01DX009 (ip), vehicle: Klucel (hydroxypropylcellulose) (HPC) 103 % of control | dose: 12.5 mg/kg/injection, schedule: Q01DX009 (ip), vehicle: Klucel (hydroxypropylcellulose) (HPC) 104 % of control and 87 % of control | dose: 25.0 mg/kg/injection, schedule: Q01DX009 (ip), vehicle: Klucel (hydroxypropylcellulose) (HPC) 100 % of control and 102 % of control | dose: 25.0 mg/kg/injection, schedule: Q04DX003 (ip), vehicle: Klucel (hydroxypropylcellulose) (HPC) 107 % of control | [13] 96 % of control | dose: 50.0 mg/kg/injection, schedule: Q04DX003 (ip), vehicle: Klucel (hydroxypropylcellulose) (HPC) 95 % of control | [11] 94 % of control | [14] 92 % of control and 96 % of control | [15] 94 % of control and 87 % of control | [16] 102 % of control

Cc1cccc(-n2c(N)cc(=O)[nH]c2=S)n1
inactive: dose: 12.5 mg/kg/injection, schedule: Q01DX009 (ip), vehicle: saline 97 % of control | dose: 12.5 mg/kg/injection, schedule: Q04DX003 (ip), vehicle: saline 96 % of control | dose: 25.0 mg/kg/injection, schedule: Q01DX009 (ip), vehicle: saline 96 % of control | dose: 25.0 mg/kg/injection, schedule: Q04DX003 (ip), vehicle: saline 96 % of control | dose: 50.0 mg/kg/injection, schedule: Q01DX009 (ip), vehicle: saline 94 % of control and 105 % of control | dose: 50.0 mg/kg/injection, schedule: Q04DX003 (ip), vehicle: saline 91 % of control | dose: 100.0 mg/kg/injection, schedule: Q01DX009 (ip), vehicle: saline 87 % of control
